# In US20130295080A1, “Pharmaceutical composition for treating melasma and preparation method thereof” (Jilin Zixin Pharmaceutical Research Institution LLC, priority 2011, published 2013):
# How the values were obtained:
# Type in all cases: in vivo, Kunming female mice
# MDA in mice livers = test: MDA content in mice livers; conditions: vitamin C group, dosage 0.1, once a day for 30 d, progesterone-modeled mice
# MDA in mice skins = test: MDA content in mice skins
# NO in mice skins = test: NO content in mice skins; conditions: vitamin C group, dosage 0.1, once a day for 30 d, progesterone-modeled mice
# SOD in mice skins = test: SOD in mice skins; conditions: vitamin C group, dosage 0.1, once a day for 30 d, progesterone-modeled mice
# SOD in mice livers = SOD in mice livers (reagent kit, spectrophotometer); conditions: vitamin C group
# [1] = test system: melanin cells in skins of mice; test: melanin cells in skins of mice, HMB45 immunohistochemistry with image analysis; conditions: mouse skin, vitamin C group, progesterone-modeled mice
# [2] = viscosity of the whole blood of mice with progesterone-induced melasma; conditions: vitamin C group
# [3] = dosage 0.1, once a day for 30 d, progesterone-modeled mice
# [4] = melanin-positive target, dosage 0.1, once a day for 30 d
smiles,measurement,setting,value
O=C1O[C@H]([C@@H](O)CO)C(O)=C1O [vitamin C],MDA,MDA in mice livers,4.58 ± 1.26
same,MDA,"MDA in mice skins; vitamin C group, dosage 0.1, once a day for 30 d, progesterone-modeled mice",4.20 ± 1.34
same,MDA contents compared with the modeling control group,MDA in mice skins; vitamin group,obviously decreased
same,NO,NO in mice skins,1.71 ± 0.52
same,SOD,SOD in mice skins,19.95 ± 5.33
same,SOD activities compared with the modeling control group,SOD in mice livers,obviously increased
same,SOD,SOD in mice livers; [3],45.62 ± 16.04
same,average optical density,[1]; [4],0.33 ± 0.14
same,integrated optical density,[1]; [4],1152.52 ± 344.09
same,average size of positive target,"[1]; dosage 0.1, once a day for 30 d",3720.56 ± 1191.13
same,blood viscosity with different shear rates (mPas) 1/s,"[2]; shear rate 1/s, dosage 0.1, once a day for 30 d, progesterone-modeled mice",29.22 ± 2.18 mPas
same,blood viscosity with different shear rates (mPas) 30/s,"[2]; shear rate 30/s, dosage 0.1, once a day for 30 d, progesterone-modeled mice",11.22 ± 1.75 mPas
same,blood viscosity with different shear rates (mPas) 100/s,"[2]; shear rate 100/s, dosage 0.1, once a day for 30 d, progesterone-modeled mice",4.60 ± 1.36 mPas
same,blood viscosities with different shear rates compared with the normal control group,[2],obviously increased
same,blood viscosity with different shear rates (mPas) 3/3,[2]; [3],28.85 ± 4.35 mPas
